Test results as given in the NIST ThermoML archive (doi:10.1016/j.jct.2017.03.026).
“And” between values parts separate entries of the source, which are not always exact repeats. Equal entries are not always repeated. ± gives the expanded uncertainty stated by the source.

Assay: molar heat capacity at constant pressure
Conditions: 101.33 kPa, Crystal, Small (less than 1 g) adiabatic calorimetry

O.O.O.O.O.O=S(=O)([O-])[O-].[Cu+2] [copper(II) sulfate pentahydrate]
Conditions | molar heat capacity at constant pressure
287.75 K | 289.04 ± 1.3 J/K/mol
287.82 K | 289.61 ± 1.3 J/K/mol
288.14 K | 289.34 ± 1.3 J/K/mol
288.18 K | 290.46 ± 1.3 J/K/mol
288.42 K | 289.31 ± 1.3 J/K/mol
288.47 K | 290.31 ± 1.3 J/K/mol
288.59 K | 291.83 ± 1.3 J/K/mol
288.8 K | 291.86 ± 1.3 J/K/mol
289.09 K | 290.24 ± 1.3 J/K/mol
289.13 K | 293.01 ± 1.3 J/K/mol
289.48 K | 297.45 ± 1.3 J/K/mol
289.75 K | 292.88 ± 1.3 J/K/mol
289.76 K | 282.28 ± 1 J/K/mol and 282.25 ± 1 J/K/mol and 292.61 ± 1.3 J/K/mol
289.83 K | 290.48 ± 1.3 J/K/mol
290 K | 282.3 ± 1 J/K/mol
290.23 K | 291.98 ± 1.3 J/K/mol
290.44 K | 291.33 ± 1.3 J/K/mol
290.57 K | 288.74 ± 1.3 J/K/mol
290.91 K | 292.31 ± 1.3 J/K/mol and 292.23 ± 1.3 J/K/mol
291.11 K | 292.78 ± 1.3 J/K/mol and 291.01 ± 1.3 J/K/mol
291.26 K | 298.2 ± 1.3 J/K/mol
291.62 K | 292.93 ± 1.3 J/K/mol
291.78 K | 291.86 ± 1.3 J/K/mol
291.96 K | 292.13 ± 1.3 J/K/mol
292.07 K | 282.87 ± 1 J/K/mol
292.1 K | 293.31 ± 1.3 J/K/mol
292.31 K | 293.26 ± 1.3 J/K/mol
292.46 K | 294.11 ± 1.3 J/K/mol
292.51 K | 284.12 ± 1 J/K/mol
292.65 K | 291.23 ± 1.3 J/K/mol
292.99 K | 292.66 ± 1.3 J/K/mol
293.15 K | 293.46 ± 1.3 J/K/mol
293.27 K | 294.35 ± 1.3 J/K/mol
293.33 K | 294.9 ± 1.3 J/K/mol
293.67 K | 295.88 ± 1.3 J/K/mol
293.82 K | 293.83 ± 1.3 J/K/mol
294.03 K | 294.9 ± 1.3 J/K/mol and 295.65 ± 1.3 J/K/mol
294.37 K | 295.73 ± 1.3 J/K/mol
294.44 K | 295.25 ± 1.3 J/K/mol
294.48 K | 285.79 ± 1 J/K/mol
294.5 K | 295.03 ± 1.3 J/K/mol
294.72 K | 294.11 ± 1.3 J/K/mol
295.06 K | 293.36 ± 1.3 J/K/mol
295.25 K | 295.78 ± 1.3 J/K/mol
295.26 K | 286 ± 1 J/K/mol
295.4 K | 295.15 ± 1.3 J/K/mol
295.61 K | 296.03 ± 1.3 J/K/mol
295.81 K | 299.05 ± 1.3 J/K/mol
295.94 K | 296.5 ± 1.3 J/K/mol
296.17 K | 298.85 ± 1.3 J/K/mol
296.52 K | 298.75 ± 1.3 J/K/mol
296.64 K | 295.93 ± 1.3 J/K/mol
296.79 K | 296.15 ± 1.3 J/K/mol
296.84 K | 287.36 ± 1 J/K/mol
296.88 K | 296.35 ± 1.3 J/K/mol
296.93 K | 297 ± 1.3 J/K/mol
297.22 K | 297.15 ± 1.3 J/K/mol
297.32 K | 296.23 ± 1.3 J/K/mol
297.57 K | 297.23 ± 1.3 J/K/mol
297.91 K | 299.05 ± 1.3 J/K/mol
297.94 K | 297.85 ± 1.3 J/K/mol
298 K | 296.85 ± 1.3 J/K/mol
298.02 K | 287.88 ± 1 J/K/mol
298.15 K | 288 ± 1 J/K/mol
298.25 K | 298.42 ± 1.3 J/K/mol
298.59 K | 299.17 ± 1.3 J/K/mol
298.68 K | 299.05 ± 1.3 J/K/mol
298.94 K | 299.4 ± 1.3 J/K/mol
299.12 K | 298.65 ± 1.3 J/K/mol
299.23 K | 288.76 ± 1 J/K/mol
299.29 K | 300.47 ± 1.3 J/K/mol
299.37 K | 298.15 ± 1.3 J/K/mol
299.64 K | 299.5 ± 1.3 J/K/mol
299.82 K | 299.2 ± 1.3 J/K/mol
300 K | 289.3 ± 1.1 J/K/mol
300.06 K | 299.2 ± 1.3 J/K/mol
300.3 K | 299.45 ± 1.3 J/K/mol
300.75 K | 298.85 ± 1.3 J/K/mol
300.77 K | 289.98 ± 1.1 J/K/mol
301.44 K | 299.02 ± 1.3 J/K/mol
301.47 K | 300.17 ± 1.3 J/K/mol
301.59 K | 289.49 ± 1 J/K/mol
302.12 K | 300.57 ± 1.3 J/K/mol
302.65 K | 301.05 ± 1.3 J/K/mol
302.7 K | 301.5 ± 1.3 J/K/mol
302.82 K | 300.42 ± 1.3 J/K/mol
303.5 K | 300.72 ± 1.3 J/K/mol
303.53 K | 291.77 ± 1.1 J/K/mol
303.83 K | 301.92 ± 1.3 J/K/mol
303.92 K | 292.06 ± 1 J/K/mol
304.18 K | 301.47 ± 1.3 J/K/mol
304.87 K | 301.52 ± 1.3 J/K/mol
305.01 K | 302.77 ± 1.3 J/K/mol
305.55 K | 302.32 ± 1.3 J/K/mol
305.56 K | 303.47 ± 1.3 J/K/mol
306.19 K | 303.64 ± 1.3 J/K/mol
306.28 K | 293.59 ± 1.1 J/K/mol
306.3 K | 293.93 ± 1.1 J/K/mol and 304.42 ± 1.3 J/K/mol
306.99 K | 304.54 ± 1.3 J/K/mol
307.44 K | 304.69 ± 1.3 J/K/mol
307.7 K | 304.19 ± 1.3 J/K/mol
308.38 K | 304.52 ± 1.3 J/K/mol
308.41 K | 305.57 ± 1.4 J/K/mol
308.62 K | 305.54 ± 1.4 J/K/mol
308.68 K | 295.75 ± 1.1 J/K/mol
309.04 K | 295.5 ± 1.1 J/K/mol
309.07 K | 305.39 ± 1.3 J/K/mol
309.75 K | 305.67 ± 1.4 J/K/mol
309.8 K | 305.39 ± 1.3 J/K/mol
310 K | 296 ± 1.1 J/K/mol
310.43 K | 305.52 ± 1.3 J/K/mol
310.97 K | 306.74 ± 1.4 J/K/mol
311.08 K | 296.13 ± 1.1 J/K/mol
311.11 K | 306.24 ± 1.4 J/K/mol
311.25 K | 307.59 ± 1.4 J/K/mol
311.79 K | 306.69 ± 1.4 J/K/mol
311.8 K | 297.26 ± 1.1 J/K/mol
312.15 K | 307.81 ± 1.4 J/K/mol
312.47 K | 307.31 ± 1.4 J/K/mol
313.16 K | 307.84 ± 1.4 J/K/mol
313.33 K | 308.96 ± 1.4 J/K/mol
313.44 K | 298.8 ± 1.1 J/K/mol
313.84 K | 308.56 ± 1.4 J/K/mol
314.07 K | 309.84 ± 1.4 J/K/mol
314.51 K | 309.76 ± 1.4 J/K/mol
314.52 K | 309.11 ± 1.4 J/K/mol
314.56 K | 298.99 ± 1.1 J/K/mol
315.19 K | 310.48 ± 1.4 J/K/mol
315.69 K | 310.88 ± 1.4 J/K/mol
315.85 K | 300.25 ± 1.1 J/K/mol
315.89 K | 310.18 ± 1.4 J/K/mol
316.57 K | 310.56 ± 1.4 J/K/mol
316.88 K | 312.41 ± 1.4 J/K/mol and 311.61 ± 1.4 J/K/mol
317.31 K | 309.31 ± 1.3 J/K/mol
317.53 K | 300.52 ± 1.1 J/K/mol
317.99 K | 311.11 ± 1.4 J/K/mol
318.06 K | 312.53 ± 1.4 J/K/mol
318.28 K | 301.47 ± 1.1 J/K/mol
318.66 K | 311.58 ± 1.4 J/K/mol
319.25 K | 313.46 ± 1.4 J/K/mol
319.34 K | 313.53 ± 1.4 J/K/mol
319.69 K | 314.25 ± 1.4 J/K/mol
320 K | 302.2 ± 1.1 J/K/mol
320.02 K | 313.28 ± 1.4 J/K/mol
320.3 K | 302.56 ± 1.1 J/K/mol
320.43 K | 313.61 ± 1.4 J/K/mol
320.7 K | 312.78 ± 1.4 J/K/mol
320.71 K | 302.82 ± 1.1 J/K/mol
321.37 K | 314.2 ± 1.4 J/K/mol
321.6 K | 312.51 ± 1.4 J/K/mol
322.05 K | 315.53 ± 1.4 J/K/mol
322.49 K | 315.5 ± 1.4 J/K/mol
322.74 K | 316.33 ± 1.4 J/K/mol
322.78 K | 316.4 ± 1.4 J/K/mol
323.07 K | 304.17 ± 1.1 J/K/mol
323.15 K | 304.37 ± 1.1 J/K/mol
323.43 K | 315.9 ± 1.4 J/K/mol
323.97 K | 317.18 ± 1.4 J/K/mol
324.11 K | 315.95 ± 1.4 J/K/mol
